This experiment concerns the target T1, human GOAT (Homo sapiens, UniProt Q96T53).
T1 construct: made in house; host or cells: Sf9 insect cells (BacToBac baculovirus, pFastBac1 vector); microsome fraction
T1 sequence (Q96T53 1-435): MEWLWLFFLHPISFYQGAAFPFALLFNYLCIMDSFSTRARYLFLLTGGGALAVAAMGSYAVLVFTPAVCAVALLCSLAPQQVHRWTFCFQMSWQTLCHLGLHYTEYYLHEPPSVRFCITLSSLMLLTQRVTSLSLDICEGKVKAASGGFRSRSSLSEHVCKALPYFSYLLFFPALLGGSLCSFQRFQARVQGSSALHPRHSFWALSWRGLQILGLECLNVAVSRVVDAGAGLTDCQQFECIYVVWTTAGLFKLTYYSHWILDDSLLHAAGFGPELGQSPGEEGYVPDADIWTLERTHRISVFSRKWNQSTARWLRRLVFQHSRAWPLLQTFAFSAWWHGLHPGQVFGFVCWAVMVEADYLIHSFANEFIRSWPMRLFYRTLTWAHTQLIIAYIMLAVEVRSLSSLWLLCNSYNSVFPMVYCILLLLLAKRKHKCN
The experiment in a line: GOAT enzyme activity measurement by HTRF method (human GOAT-expressing microsome fraction). It is filed as biochemical. The following applies: 10 μM compound; human GOAT-expressing Sf9 microsome fraction; octanoyl-CoA and Ghrelin-biotin substrates; 0% control without compound, 100% control without enzyme. The protocol:
Human GOAT (Accession NO: EU518495) cDNA was amplified by PCR including reaction of (1) 98° C., 1 min, (2) 35 repeats of 98° C., 10 sec·65° C., 15 sec·72° C., 80 sec, and (3) 72° C., 5 min, using human stomach cDNA library (Takara Bio) as a template and Pyrobest DNA Polymerase (Takara Bio). The amplified fragment was treated with restriction enzymes, inserted into Stu I/Not I sites of pFastBacl (Invitrogen) by using Ligation High (TOYOBO), and transfected into ECOS JM109 (Nippon Gene) to construct pFB/hGOAT.
Production of Baculovirus and Preparation of Insect Cell Microsome Fraction
For preparation of baculovirus from pFB/hGOAT, BacToBac baculovirus expression system (Invitrogen) was used. The virus titer was measured by Real-Time PCR using SYBR Green (Takara Bio). Sf9 cells were infected with the obtained baculovirus at Multiplicity of Infection (MOI)=0.2, and cultured for 70 hr. The Sf9 cells were recovered, suspended in a suspension buffer (TBS (0.3 M NaCl), 1 mM DTT, 1 mM EDTA, Complete (Roche) (1 tablet/50 mL)), and the cells were disrupted twice on ice at 20000 rpm, 30 sec using a polytron homogenizer. The cell disruption solution was centrifuged at 1000 rpm for 10 min at 4° C., the supernatant was further ultracentrifuged at 40000 rpm for 30 min at 4° C. and the precipitate was recovered. The obtained precipitate was suspended in the suspension buffer used above to give a human GOAT-expressing microsome fraction. The protein level was measured using BCA Protein assay Reagent (PIERCE).
Enzyme Activity Measurement by HTRF Method
A compound solution (2 μL) diluted with an assay buffer containing 50 mM Tris-HCl (pH 7.5), 0.5% TWEEN20, and Complete to 15% DMSO and 90 μg/mL human GOAT-expressing microsome fraction (2 μL) were incubated at room temperature for 20 min, after which a substrate mixed solution (2 μL) containing 30 μM octanoyl-CoA (CHEM-IMPLEX) and 3 μM Ghrelin-biotin ([…]epsilon aminocaproic acid-biotin (Greiner Coutom synthesis)) was added to 384 white small volume plate (Greiner). After reaction for 20 min, 2 μL of citrate buffer (pH3) (mixed solution of 0.1 M citric acid (39.8 mL) and 0.2 M Na2HPO4 (10.2 mL)), 2 μL of 25 nM anti-active ghrelin antibody (produced in mouse), 5 μL of Eu(K)-Anti Mouse IgG Pab (Cis Bio) 100-fold diluted with HTRF detection buffer (Cis Bio) and 5 μL of streptavidin-Xlent (Cis Bio) 66.6-fold diluted with HTRF detection buffer (Cis Bio) were added. After incubation at room temperature for 1 hr or longer, the fluorescence values at 620 nm and 665 nm were measured by Envision (PerkinElmer). The data was calculated [(665 nm signal/620 nm signal)×10^4], and the inhibitory activity against human GOAT was shown by the data where 0% control was without compound, and 100% control was without enzyme.
Background: In TR-FRET formats the signal depends on donor and acceptor labels being close together.

The term inhibition denotes the drop in the measured response relative to a control, in per cent. As to `Cc1nc(C(F)(F)F)ccc1COc1cc(Cl)c2c(CC(=O)O)csc2c1Cl` [Example 30, (4,7-Dichloro-6-((2-methyl-6-(trifluoromethyl)pyridin-3-yl)methoxy)-1-benzothiophen-3-yl)acetic acid], the inhibition at 10 µM turned out to be 106%.
As to `Cc1ccc(COc2cc(C(F)(F)F)c3c(CC(=O)O)csc3c2)c(C)n1` [Example 31, (6-((2,6-Dimethylpyridin-3-yl)methoxy)-4-(trifluoromethyl)-1-benzothiophen-3-yl)acetic acid], the inhibition at 10 µM is 103%.
In the case of `Cn1nc(C(F)(F)F)cc1COc1cc(C(F)(F)F)c2c(CC(=O)O)csc2c1` [Example 32, (6-((1-Methyl-3-(trifluoromethyl)-1H-pyrazol-5-yl)methoxy)-4-(trifluoromethyl)-1-benzothiophen-3-yl)acetic acid], the inhibition at 10 µM amounted to 103%.
Consider `COC(=O)Cc1csc2c(F)c(OCc3cc(C(F)(F)F)nn3C)cc(C)c12` [Example 33, Methyl(7-fluoro-4-methyl-6-((1-methyl-3-(trifluoromethyl)-1H-pyrazol-5-yl)methoxy)-1-benzothiophen-3-yl)acetate], for which the inhibition at 10 µM was 96.1%.
Turning to `Cc1cc(OCc2cc(C(F)(F)F)nn2C)c(F)c2scc(CC(=O)O)c12` [Example 34, (7-Fluoro-4-methyl-6-((1-methyl-3-(trifluoromethyl)-1H-pyrazol-5-yl)methoxy)-1-benzothiophen-3-yl)acetic acid], the inhibition at 10 µM stood at 104%.
On to `COC(=O)Cc1csc2c(F)c(OCc3ccc(C(F)(F)F)nc3C)cc(C)c12` [Example 35, Methyl(7-fluoro-4-methyl-6-((2-methyl-6-(trifluoromethyl)pyridin-3-yl)methoxy)-1-benzothiophen-3-yl)acetate], for which the inhibition at 10 µM is 94%.
For `Cc1nc(C(F)(F)F)ccc1COc1cc(C)c2c(CC(=O)O)csc2c1F` [Example 36, (7-Fluoro-4-methyl-6-((2-methyl-6-(trifluoromethyl)pyridin-3-yl)methoxy)-1-benzothiophen-3-yl)acetic acid], the inhibition at 10 µM amounted to 106%.
Take `COC(=O)Cc1csc2c(F)c(OCc3cc(C(F)(F)F)nn3C)cc(Cl)c12` [Example 37, Methyl(4-chloro-7-fluoro-6-((1-methyl-3-(trifluoromethyl)-1H-pyrazol-5-yl)methoxy)-1-benzothiophen-3-yl)acetate]: the inhibition at 10 µM came out at 98.9%.
As for `Cn1nc(C(F)(F)F)cc1COc1cc(Cl)c2c(CC(=O)O)csc2c1F` [Example 38, (4-Chloro-7-fluoro-6-((1-methyl-3-(trifluoromethyl)-1H-pyrazol-5-yl)methoxy)-1-benzothiophen-3-yl)acetic acid], the inhibition at 10 µM is 107%.
As for `COC(=O)Cc1csc2c(F)c(OCc3ccc(C(F)(F)F)nc3C)cc(Cl)c12` [Example 39, Methyl(4-chloro-7-fluoro-6-((2-methyl-6-(trifluoromethyl)pyridin-3-yl)methoxy)-1-benzothiophen-3-yl)acetate], the inhibition at 10 µM came to 88.6%.
Take `Cc1nc(C(F)(F)F)ccc1COc1cc(Cl)c2c(CC(=O)O)csc2c1F` [Example 40, (4-Chloro-7-fluoro-6-((2-methyl-6-(trifluoromethyl)pyridin-3-yl)methoxy)-1-benzothiophen-3-yl)acetic acid]: the inhibition at 10 µM turned out to be 106%.
The figure for `O=C(O)Cc1coc2c(Cl)c(OCc3ccc(Cl)cc3Cl)ccc12` [Example 42, (7-Chloro-6-((2,4-dichlorobenzyl)oxy)-1-benzofuran-3-yl)acetic acid] is 100%.
The figure for `COC(=O)Cc1coc2c(C)c(OCc3ccc(C)nc3C)cc(C)c12` [Example 43, Methyl(6-((2,6-dimethylpyridin-3-yl)methoxy)-4,7-dimethyl-1-benzofuran-3-yl)acetate] is 92.7%; for `Cc1ccc(COc2cc(C)c3c(CC(=O)O)coc3c2C)c(C)n1` [Example 44, (6-((2,6-Dimethylpyridin-3-yl)methoxy)-4,7-dimethyl-1-benzofuran-3-yl)acetic acid] it is 102%.

The values are drawn from patent publication US9238639B2, “Aromatic ring compound” (TAKEDA PHARMACEUTICAL COMPANY LIMITED, priority 2012, dated 2016).
